From patent publication US12419900B2, “Induction of synthetic lethality with epigenetic therapy” (The Johns Hopkins University, priority 2017, dated 2025)
Like-named read-outs stand apart in the source and are kept apart here.

Columns and labels:
[1] = system: DU145 prostate cancer cells; experiment: Alamar blue cell viability and growth, alisertib x decitabine dose matrix; assay type: cell-based; conditions: Aurora kinase inhibitor + decitabine
Procedure: DU145 prostate cancer cells and A549 lung cancer cells were treated with varying concentrations (0 nM, 10 nM, 50 nM, and 100 nM) of alisertib in addition to varying concentrations of decitabine (0 nM, 50 nM, 100 nM, and 250 nM). Representative data are shown in FIGS. 2A and 2B, as well as the Tables below. […] In each panel, a dose response of each drug alone and in combination was used in Alamar blue cell viability assays. […] Formal synergy analyses were performed using the Bliss independence score (where values greater than zero indicate greater than additive effect). […] The graph of FIG. 2A is a growth curve of the DU145 prostate cancer cells for the agents alone (decitabine and alisertib separately), a vehicle control, and the agents in combination (decitabine and alisertib together). […] Likewise, the graph of FIG. 2B is a growth curve of the A549 lung cancer cells for the agents alone (decitabine and alisertib separately), a vehicle control, and the agents in combination (decitabine and alisertib together). […] The synergy analysis of the combination of decitabine and alisertib was evaluated in a series of 18 cancer cell lines (9 prostate, 1 ovarian, 1 lung, 2 colon, 2 central nervous system, and 3 breast cancer cell lines) and 2 non-cancer cell models.

[2] = system: PC-3 cancer cells; experiment: Chemical library screen (JHDL), second stage, dose response matrix with decitabine; assay type: cell-based
Description: Cells were exposed to each dose of decitabine for four consecutive days prior to addition of each dose of the identified compounds for three consecutive days. […] FIG. 30 is a bar graph illustrating the Bliss Independence score values for the cells of the compounds identified.

[3] = system: PC-3 xenograft tumors; experiment: PC-3 xenograft growth suppression; assay type: in vivo, Male Fox1-nude mice; conditions: KCC-08 i.p. 1 then 0.5 mg/kg, isotretinoin oral 30 mg/kg
Procedure: For cancer xenograft growth suppression, one million human PC-3 prostate cancer cells were suspended in Matrigel and inoculated into the flanks of Male Fox1-nude mice provided by Jackson Laboratory (Bar Harbor, ME). When the resultant xenograft tumors were measurable two weeks later, the tumor-bearing mice were treated with KCC-08, given by intraperitoneal infection in saline for 5 of 7 days at 1 mg/kg for week 1 and then 0.5 mg/kg for 5 of 7 days for week 2. Isotretinoin was given by oral gavage in peanut oil at 30 mg/kg for the same 5 of 7 days as the KCC-08 for weeks 1 and 2. For week 3, isotretinoin was given by oral gavage in peanut oil at 30 mg/kg for 5 of 7 days, and KCC-08 was not administered. Tumors were measured 3 times a week for 3 weeks, and the volume was estimated by using the formula 4/3*Π*width*length*depth.

[4] = system: retinoic acid signaling pathway; experiment: pRARE-luciferase reporter of retinoic acid signaling in PC-3 cells; assay type: cell-based, human; conditions: 72 hours; for RAR Reporter Activity, Average / RAR Reporter Activity, Trial 1 / RAR Reporter Activity, Trial 2 / RAR Reporter Activity, Trial 3 / RAR Reporter Activity, Trial 4 / RAR Reporter Activity, Trial 5 / RAR Reporter Activity, Trial 6: KCC-08 10 μM, isotretinoin 5 μM, vehicle average 1.00
Procedure: To determine whether MBD2 protein inhibitors triggered retinoic acid signaling pathway activation, KCC-08 was administered to PC-3 human prostate cancer cells transfected with a heterologous reporter plasmid responsive to the presence of retinoic acid signaling (pRARE-luciferase), and the cells were used to assess reactivation of the retinoic acid response signaling pathway. The cancer cells were treated with a vehicle control or KCC-08 (10 μM) both with and without isotretinoin (5 μM) for 72 hours, and then assayed for luciferase reporter production.

[5] = system: PC-3 cancer cells; experiment: Clonogenic survival; assay type: cell-based, human; conditions: 72 hours treatment, colonies ten days later, vehicle control 100.00, 12-27 replicates
Procedure: To assay for cancer clonogenic survival, PC-3 cancer cells were seeded into 6-well plates at 5,000 cells/well and allowed to attach overnight. Next, the cells were treated for 72 hours with vehicle control or KCC-08, both with and without isotretinoin, washed three times with phosphate-buffered saline, and then placed back into complete growth medium. Ten days later, colonies founded by surviving cells were detected using crystal violet staining.

[6] = PC-3, decitabine 0-10 μM four days, then compound 0-10 μM three days

## Cc1csc(-c2nnc(Nc3ccc(Oc4ncccc4-c4ccnc(N)n4)cc3)c3ccccc23)c1 [AMG-900]
[1]
  growth inhibition of DU-145 cells in combination with decitabine: synergistic growth inhibition

## Cc1ccc2c(=O)c3ccccc3n(CCCN)c2c1C.O=C(O)C(=O)O [ER27319]
[2]; [6]
  growth inhibition when combined with decitabine (Bliss independence score sum across all dose combinations greater than zero): synergistic growth inhibition

## COc1cc2ncn(-c3cc(OCc4ccccc4C(F)(F)F)c(C(N)=O)s3)c2cc1OC [GW843682]
[2]; [6]
  growth inhibition when combined with decitabine (Bliss independence score sum across all dose combinations greater than zero): synergistic growth inhibition

## CC1=C(/C=C/C(C)=C/C=C/C(C)=C\C(=O)O)C(C)(C)CCC1 [Isotretinoin, isotretinoin]
[3]; Day 1
  Percent average xenograft tumor volume relative to baseline, Average: 100%
[3]; Day 4
  Percent average xenograft tumor volume relative to baseline, Average: 161.09%
[3]; Day 8
  Percent average xenograft tumor volume relative to baseline, Average: 238.81%
[3]; Day 11
  Percent average xenograft tumor volume relative to baseline, Average: 315.81%
[3]; Day 15
  Percent average xenograft tumor volume relative to baseline, Average: 394.27%
[3]; Day 18
  Percent average xenograft tumor volume relative to baseline, Average: 488.75%
[3]; Day 22
  Percent average xenograft tumor volume relative to baseline, Average: 522.19%
[4]
  RAR Reporter Activity, Average: 1.57
  RAR Reporter Activity, Trial 1: 1.66
  RAR Reporter Activity, Trial 2: 1.77
  RAR Reporter Activity, Trial 3: 1.62
  RAR Reporter Activity, Trial 4: 1.42
  RAR Reporter Activity, Trial 5: 1.47
  RAR Reporter Activity, Trial 6: 1.46
[5]
  Clonogenic Survival Relative to Control, Average: 96.62

## Cn1c2ccccc2n2cc(-c3ccc([N+](=O)[O-])cc3)nc12 [KCC-08]
[3]; Day 1
  Percent average xenograft tumor volume relative to baseline, Average: 100%
[3]; Day 4
  Percent average xenograft tumor volume relative to baseline, Average: 151.16%
[3]; Day 8
  Percent average xenograft tumor volume relative to baseline, Average: 223.22%
[3]; Day 11
  Percent average xenograft tumor volume relative to baseline, Average: 250.94%
[3]; Day 15
  Percent average xenograft tumor volume relative to baseline, Average: 338.37%
[3]; Day 18
  Percent average xenograft tumor volume relative to baseline, Average: 406.04%
[3]; Day 22
  Percent average xenograft tumor volume relative to baseline, Average: 452.09%
[4]; KCC-08 10 μM with or without isotretinoin 5 μM
  luciferase activity / retinoic acid signaling pathway activation: enhanced
[4]
  RAR Reporter Activity, Average: 2.24
  RAR Reporter Activity, Trial 1: 2.08
  RAR Reporter Activity, Trial 2: 2.31
  RAR Reporter Activity, Trial 3: 1.96
  RAR Reporter Activity, Trial 4: 2.46
  RAR Reporter Activity, Trial 5: 2.36
  RAR Reporter Activity, Trial 6: 2.28
[5]
  Clonogenic Survival Relative to Control, Average: 96.86

## O=C(O)c1ccc(Nc2ncc3c(n2)-c2ccc(Cl)cc2C(c2c(F)cccc2F)=NC3)cc1 [MLN8054]
[1]
  growth inhibition of DU-145 cells in combination with decitabine: synergistic growth inhibition

## CCCCCCCCCCCCCCCCn1cc[n+](Cc2ccccc2)c1C.[I-] [NH125]
[2]
  growth inhibition when combined with decitabine (Bliss independence score sum across all dose combinations greater than zero): synergistic growth inhibition

## Nc1ccc(-c2cccc3c(=O)cc(N4CCOCC4)oc23)cc1 [PI828]
[2]; [6]
  growth inhibition when combined with decitabine (Bliss independence score sum across all dose combinations greater than zero): synergistic growth inhibition

## Cn1cc(C2=C(c3cn(CCCSC(=N)N)c4ccccc34)C(=O)NC2=O)c2ccccc21 [RO31-8220]
[2]
  growth inhibition when combined with decitabine (Bliss independence score sum across all dose combinations greater than zero): synergistic growth inhibition

## O=C1NC(=O)c2c1c1c3ccccc3n3c1c1c2c2ccccc2n1C1CCC3O1 [SB218078]
[2]; [6]
  growth inhibition when combined with decitabine (Bliss independence score sum across all dose combinations greater than zero): synergistic growth inhibition

## CC[C@@]1(O)C[C@H](O[C@H]2C[C@H](N(C)C)[C@H](O[C@H]3C[C@H](O)[C@H](O[C@H]4CCC(=O)[C@H](C)O4)[C@H](C)O3)[C@H](C)O2)c2c(cc3c(c2O)C(=O)c2c(O)cccc2C3=O)[C@H]1C(=O)OC [aclarubicin]
[2]
  growth inhibition when combined with decitabine (Bliss independence score sum across all dose combinations greater than zero): synergistic growth inhibition

## COc1ccc(C[C@H]2NC[C@H](O)[C@H]2OC(C)=O)cc1 [anisomycin]
[2]; [6]
  growth inhibition when combined with decitabine (Bliss independence score sum across all dose combinations greater than zero): synergistic growth inhibition

## N.N.O=C([O-])C1(C(=O)[O-])CCC1.[Pt+2] [carboplatin]
[2]; [6]
  growth inhibition when combined with decitabine (Bliss independence score sum across all dose combinations greater than zero): synergistic growth inhibition

## COc1cc2c(c(OC)c1OC)-c1ccc(OC)c(=O)cc1[C@@H](NC(C)=O)CC2 [colchicine]
[2]
  growth inhibition when combined with decitabine (Bliss independence score sum across all dose combinations greater than zero): synergistic growth inhibition

## Nc1ccn([C@@H]2O[C@H](CO)[C@@H](O)[C@@H]2O)c(=O)n1 [cytarabine]
[2]; [6]
  growth inhibition when combined with decitabine (Bliss independence score sum across all dose combinations greater than zero): synergistic growth inhibition

## CC(=O)O[C@@]12CO[C@@H]1C[C@H](O)[C@@]1(C)C(=O)[C@H](O)C3=C(C)[C@@H](OC(=O)[C@H](O)[C@@H](NC(=O)OC(C)(C)C)c4ccccc4)C[C@@](O)([C@@H](OC(=O)c4ccccc4)[C@H]21)C3(C)C [docetaxel]
[2]; [6]
  growth inhibition when combined with decitabine (Bliss independence score sum across all dose combinations greater than zero): synergistic growth inhibition

## Nc1ccn([C@@H]2O[C@H](CO)[C@@H](O)C2(F)F)c(=O)n1 [gemcitabine]
[2]; [6]
  growth inhibition when combined with decitabine (Bliss independence score sum across all dose combinations greater than zero): synergistic growth inhibition

## COc1c(C)c2c(c(O)c1C/C=C(\C)CCC(=O)O)C(=O)OC2 [mycophenolic acid]
[2]; [6]
  growth inhibition when combined with decitabine (Bliss independence score sum across all dose combinations greater than zero): synergistic growth inhibition

## C[C@@H]1O[C@@H](O[C@H]2C[C@@H](O)[C@]3(CO)[C@H]4[C@H](O)C[C@]5(C)[C@@H](C6=CC(=O)OC6)CC[C@]5(O)[C@@H]4CC[C@]3(O)C2)[C@H](O)[C@H](O)[C@H]1O [ouabain]
[2]; [6]
  growth inhibition when combined with decitabine (Bliss independence score sum across all dose combinations greater than zero): synergistic growth inhibition

## CO[C@H]1C[C@H](O[C@H]2CC[C@]3(C)[C@H]4CC[C@]5(C)[C@@H](C6=CC(=O)OC6)CC[C@]5(O)[C@@H]4CC[C@]3(O)C2)O[C@H](C)[C@H]1O [periplocymarin]
[2]
  growth inhibition when combined with decitabine (Bliss independence score sum across all dose combinations greater than zero): synergistic growth inhibition

## C[C@]12CC[C@H]3[C@@H](CC[C@]4(O)C[C@@H](O)CC[C@]34C=O)[C@@]1(O)CC[C@@H]2C1=CC(=O)OC1 [strophanthidin]
[2]
  growth inhibition when combined with decitabine (Bliss independence score sum across all dose combinations greater than zero): synergistic growth inhibition

## CC[C@@]1(O)C(=O)OCc2c1cc1n(c2=O)Cc2cc3c(CN(C)C)c(O)ccc3nc2-1 [topotecan]
[2]; [6]
  growth inhibition when combined with decitabine (Bliss independence score sum across all dose combinations greater than zero): synergistic growth inhibition

## CC(C)[C@@H]1NC(=O)[C@H](C)OC(=O)[C@@H](C(C)C)NC(=O)[C@@H](C(C)C)OC(=O)[C@H](C(C)C)NC(=O)[C@H](C)OC(=O)[C@@H](C(C)C)NC(=O)[C@@H](C(C)C)OC(=O)[C@H](C(C)C)NC(=O)[C@H](C)OC(=O)[C@@H](C(C)C)NC(=O)[C@@H](C(C)C)OC1=O [valinomycin]
[2]; [6]
  growth inhibition when combined with decitabine (Bliss independence score sum across all dose combinations greater than zero): synergistic growth inhibition

## CCC1=C[C@@H]2CN(C1)Cc1c([nH]c3ccccc13)[C@@](C(=O)OC)(c1cc3c(cc1OC)N(C)[C@H]1[C@@](O)(C(=O)OC)[C@H](OC(C)=O)[C@]4(CC)C=CCN5CC[C@]31[C@@H]54)C2 [vinorelbine]
[2]; [6]
  growth inhibition when combined with decitabine (Bliss independence score sum across all dose combinations greater than zero): synergistic growth inhibition
